≈ marks a conversion by molar mass, not a printed value.
How the values were obtained:
S.aureus BSA 678 = experiment: MIC, MRSA panel; assay type: cell-based; conditions: Staphylococcus aureus
S.aureus ACH-0232 = experiment: MIC, MRSA panel; assay type: cell-based; conditions: Staphylococcus aureus
S.aureus BSA 643 = experiment: MIC, MRSA panel; assay type: cell-based; conditions: Staphylococcus aureus
S.aureus NY 2746 = experiment: MIC, MRSA panel; assay type: cell-based; conditions: Staphylococcus aureus
S.aureus ATCC 33591 = experiment: MIC, MRSA panel; assay type: cell-based; conditions: Staphylococcus aureus, ATCC33591|MRSA
S.aureus BK 2384 = experiment: MIC, MRSA panel; assay type: cell-based; conditions: Staphylococcus aureus
S.aureus ACH-0231 = experiment: MIC, MRSA panel; assay type: cell-based; conditions: Staphylococcus aureus
S.aureus COL = experiment: MIC, MRSA panel; assay type: cell-based; conditions: Staphylococcus aureus
[1] = Liver S9 fraction stability; assay type: in vitro ADME, human
[2] = tested on: E.faecalis (VR) ATCC 700802; experiment: MIC, Gram-positive panel; assay type: cell-based; conditions: Enterococcus faecalis, ATCC700802
E.faecium ATCC 49032 = experiment: MIC, Gram-positive panel; assay type: cell-based; conditions: Enterococcus faecium, ATCC49032
[3] = Stability in dosing vehicle; assay type: physicochemical; conditions: potassium phosphate at pH 7.4, after 4 h
Plasma stability [4] = assay type: in vitro ADME; conditions: rat
[5] = Liver microsome stability; assay type: in vitro ADME; conditions: human liver microsomes (HLM)
C. albicans = experiment: MIC against yeast; assay type: cell-based; conditions: Candida albicans, read-out: MIC C. albicans
E.faecalis ATCC 29212 = experiment: MIC, Gram-positive panel; assay type: cell-based; conditions: Enterococcus faecalis, ATCC29212
Plasma stability [6] = assay type: in vitro ADME; conditions: human
S.epidermidis (MS) SE42 = experiment: MIC, Gram-positive panel; assay type: cell-based; conditions: Staphylococcus epidermidis
Gram-positive bacteria = experiment: MBC analysis, expanded panel of Gram-positive bacteria; assay type: cell-based; conditions: MIC = MBC
MSSA = experiment: MIC assay with 50% mouse serum added; assay type: cell-based, S. aureus; conditions: fold shift in MIC with 50% mouse serum
E.coli 1GC2 = experiment: MIC, Gram-negative panel; assay type: cell-based; conditions: Escherichia coli
[7] = Liver microsome stability; assay type: in vitro ADME; conditions: rat liver microsomes (RLM)
[8] = Liver S9 fraction stability; assay type: in vitro ADME; conditions: rat liver S9 fraction (RLS9)
[9] = tested on: E.faecium (VR) ATCC 700221; experiment: MIC, Gram-positive panel; assay type: cell-based; conditions: Enterococcus faecium, ATCC700221
Plasma stability [10] = assay type: in vitro ADME; conditions: mouse
Plasma stability [11] = assay type: in vitro ADME; conditions: dog
E.coli FQR 362265 = experiment: MIC, Gram-negative panel; assay type: cell-based; conditions: Escherichia coli, FQR362265
[12] = tested on: S.haemolyticus (MS) ACH-0013; experiment: MIC, Gram-positive panel; assay type: cell-based; conditions: Staphylococcus haemolyticus
S.marcescens ACH-0009 = experiment: MIC, Gram-negative panel; assay type: cell-based; conditions: Serratia marcescens, ACH0009
[13] = tested on: DNA, RNA, and protein synthesis in S. aureus ATCC 29213; experiment: Macromolecular synthesis assays; assay type: cell-based; conditions: 10× MIC, 20 min incubation
S. aureus ATCC 29213 = experiment: Time-kill study; assay type: cell-based; conditions: 2, 4 and 8 times the MIC, 24 h time course
rat red blood cell = experiment: Hemolysis, rat red blood cell assay; assay type: cell-based; conditions: rat red blood cells, data not shown
MRSA = experiment: MIC assay with 50% human serum added; assay type: cell-based, S. aureus; conditions: fold shift in MIC with 50% human serum
[14] = tested on: S.epidermidis (FQR) ACH-0082; experiment: MIC, Gram-positive panel; assay type: cell-based; conditions: Staphylococcus epidermidis
P.aeruginosa FQR 467296 = experiment: MIC, Gram-negative panel; assay type: cell-based; conditions: Pseudomonas aeruginosa, FQR467296
Plasma stability [15] = assay type: in vitro ADME; conditions: monkey
K.pneumoniae ATCC 13883 = experiment: MIC, Gram-negative panel; assay type: cell-based; conditions: Klebsiella pneumoniae, ATCC13883
A.baumanii ATCC 9957 = experiment: MIC, Gram-negative panel; assay type: cell-based; conditions: Acinetobacter baumannii, ATCC9957
S.typhimurium ATCC 14028 = experiment: MIC, Gram-negative panel; assay type: cell-based; conditions: Salmonella enterica, ATCC14028|TYPHIMURIUM
E.cloacae ACH-0008 = experiment: MIC, Gram-negative panel; assay type: cell-based; conditions: Enterobacter cloacae, ACH0008

`CN[C@H](CC(C)C)C(=O)N[C@H]1C(=O)N[C@@H](CC(N)=O)C(=O)N[C@H]2C(=O)N[C@H]3C(=O)N[C@H](C(=O)N[C@H](C(=O)O)c4cc(O)cc(O)c4-c4cc3ccc4O)[C@H](O)c3ccc(c(Cl)c3)Oc3cc2cc(c3O[C@@H]2O[C@H](CO)[C@@H](O)[C@H](O)[C@H]2O[C@H]2C[C@](C)(N)[C@H](O)[C@H](C)O2)Oc2ccc(cc2Cl)[C@H]1O` [Vancomycin, reference compound] gave an MIC (S.aureus BSA 678) of 1 µg/mL (≈ 0.69 µM), an MIC (S.aureus ACH-0232) of 1 µg/mL (≈ 0.69 µM) and an MIC (S.aureus BSA 643) of 1 µg/mL (≈ 0.69 µM). For the same molecule, the MIC (S.aureus NY 2746) was 1 µg/mL (≈ 0.69 µM), the MIC (S.aureus ATCC 33591) was 1 µg/mL (≈ 0.69 µM) and the MIC (S.aureus BK 2384) was 1 µg/mL (≈ 0.69 µM). It also gave an MIC (S.aureus ACH-0231) of 2 µg/mL (≈ 1.38 µM) and an MIC (S.aureus COL) of 1 µg/mL (≈ 0.69 µM).

With `O=[N+]([O-])c1ccc(-c2nc3cccc(O)c3[nH]2)o1` [Compound 3e, 2-(5-Nitrofuran-2-yl)-3H-benzo[d]imidazole-4ol] the remaining ([1]; HLS9, after 60 min of incubation) was 13%, the half-life ([1]; human, liver S9 fraction) was 0.21 h and the MIC [2] was 1 µg/mL (≈ 4.08 µM). The MIC (E.faecium ATCC 49032) was 4 µg/mL (≈ 16.3 µM), the “stability in dosing vehicle” value [3] was “no degradation” and the half-life (Plasma stability [4]) was 3.9 h. For the same molecule, the MIC (S.aureus BSA 678) was 1 µg/mL (≈ 4.08 µM), the “time to complete clearance” value [5] was at most 30 min and the MIC (C. albicans) was over 64 µg/mL. For the same molecule, the MIC (E.faecalis ATCC 29212) was 1 µg/mL (≈ 4.08 µM), the MIC (S.aureus ACH-0232) was 2 µg/mL (≈ 8.16 µM) and the half-life (Plasma stability [6]) was 4.5 h. It also gave an MIC (S.aureus BSA 643) of 1 µg/mL (≈ 4.08 µM), an MIC (S.aureus NY 2746) of 2 µg/mL (≈ 8.16 µM) and an MIC (S.epidermidis (MS) SE42) of 1 µg/mL (≈ 4.08 µM). For the same molecule, the “bactericidal activity by MBC analysis” value (Gram-positive bacteria) was “bactericidal”, the “Fold Shift Mouse” value (MSSA) was 4 × and the MIC (E.coli 1GC2) was 16 µg/mL (≈ 65.3 µM). For the same molecule, the “time to complete clearance” value [7] was at most 30 min, the clearance time [8] was under 30 min and the MIC [9] was 4 µg/mL (≈ 16.3 µM). For the same molecule, the half-life (Plasma stability [10]) was 3.6 h, the half-life (Plasma stability [11]) was 5.6 h and the MIC (E.coli FQR 362265) was 4 µg/mL (≈ 16.3 µM). It also gave an MIC (S.aureus ATCC 33591) of 2 µg/mL (≈ 8.16 µM), an MIC [12] of 0.5 µg/mL (≈ 2.04 µM) and an MIC (S.marcescens ACH-0009) of 16 µg/mL (≈ 65.3 µM). For the same molecule, the “inhibition of DNA, RNA and protein synthesis” value [13] was “significantly inhibited DNA, RNA, and protein at nearly equivalent levels”, the Time-kill result (S. aureus ATCC 29213) was “bactericidal” and the hemolysis (rat red blood cell) was “negative”. For the same molecule, the MIC (S.aureus BK 2384) was 1 µg/mL (≈ 4.08 µM), the “Fold Shift Human” value (MRSA) was 4 × and the MIC (S.aureus ACH-0231) was 2 µg/mL (≈ 8.16 µM). The MIC [14] was 4 µg/mL (≈ 16.3 µM), the MIC (P.aeruginosa FQR 467296) was over 64 µg/mL and the MIC (S.aureus COL) was 1 µg/mL (≈ 4.08 µM). The half-life (Plasma stability [15]) was 2 h, the MIC (K.pneumoniae ATCC 13883) was 8 µg/mL (≈ 32.6 µM) and the MIC (A.baumanii ATCC 9957) was over 64 µg/mL. It also gave an MIC (S.typhimurium ATCC 14028) of 4 µg/mL (≈ 16.3 µM) and an MIC (E.cloacae ACH-0008) of 4 µg/mL (≈ 16.3 µM).
